Reference: patent US9533985B2, “Sulfonamide derivative and medicinal use thereof” (EA Pharma Co., Ltd., priority 2012, dated 2017)

Key:
Type in all cases: cell-based
α4β7 integrin [1] = target: T1, α4β7 integrin (Homo sapiens (Human), UniProt P13612+P26010); test: MAdCAM-1/α4β7 integrin binding inhibitory activity evaluation test (RPMI-8866 cell adhesion to MAdCAM-1/Fc); settings: for Selectivity: IC50 in VCAM-1/α4β1 test divided by IC50 in MAdCAM-1/α4β7 test; for IC50: RPMI-8866 cells binding to recombinant mouse MAdCAM-1/Fc, no serum
Method: The ability of test substances to inhibit the binding of a human B cell line, RPMI-8866, which is known to express α4β7 integrin, to MAdCAM-1 was measured. To 96-well microtiter plates, recombinant mouse MAdCAM-1/Fc (R&D systems) solution (0.75 μg/mL) diluted with buffer A (carbonate buffer solution, pH 9.6) was added at 50 μL/well, followed by incubation at 4° C. overnight. After washing once with PBS, Block Ace (Snow Brand Milk Products Company, Limited) was added at 150 μL/well, followed by incubation at room temperature for 2 hours. After removal, washing was conducted once with PBS. 100 μL of each test substance diluted with binding buffer (DMEM containing 40 mM HEPES, 0.2% BSA, and 4 mM MnCl2) to various concentrations and 100 μL of RPMI-8866 cells (2×10^6 cell/mL) were added to the plates coated with MAdCAM-1/Fc (5×10^5 cells/well), followed by incubation at 30° C. for 15 minutes to 60 minutes. After the cells were bound to each well, unbound cells were removed by washing with PBS. To the plates, buffer C (PBS containing 1.5% Triton X-100) was added at 50 μL/well to lyse the bound RPMI-8866 cells. To 30 μL of the cell lysate, 30 μL of Substrate Buffer (Promega, CytoTox 96 Non-Radioactive Cytotoxicity Assay) was added, and the reaction was allowed to proceed at room temperature in a dark place for 30 minutes. To each well, 30 μL of Stop Solution (Promega, CytoTox 96 Non-Radioactive Cytotoxicity Assay) was added, and the absorbance at 490 nm was measured by using a plate reader. Here, by the obtained absorbance, the activity of the lactate dehydrogenase (LDH) dissolved into the supernatant of each well was detected. In other words, the absorbance was proportional to the number of the RPMI-8866 cells bound to MAdCAM-1 and remaining on the plate. The test was duplicated. The binding ratios of the cells at various concentrations were determined, with the absorbance of a well containing no test substance taken as 100%. Then, the concentration IC50, at which 50% binding inhibition was achieved, was calculated. […] Note that the selectivity in the table was determined by dividing the IC50 value in VCAM-1/α4β1 Integrin Binding Inhibitory Activity Evaluation Test by the IC50 value in the MAdCAM-1/α4β7 integrin binding inhibitory activity evaluation test.

α4β7 integrin [2] = target: T1, α4β7 integrin; test: MAdCAM-1/α4β7 integrin binding inhibitory activity evaluation test in the presence of serum (1); settings: RPMI-8866 cells binding to mouse MAdCAM-1/Fc, human serum at final concentration of 50%; read-out: α4β7 with serum added, IC50
Method: The ability of test substances to inhibit the binding of a human B cell line, RPMI-8866, which is known to express α4β7 integrin, to MAdCAM-1 was measured. To 96-well microtiter plates, recombinant mouse MAdCAM-1/Fc (R&D systems) solution (1 μg/mL) diluted with buffer A (carbonate buffer, pH 9.6) was added at 50 μL/well, followed by incubation at 4° C. overnight. After washing once with PBS, Block Ace (Snow Brand Milk Products Company, Limited) was added at 150 μL/well, followed by incubation at room temperature for 2 hours. After removal, washing was conducted once with PBS. 100 μL of each test substance diluted with a binding buffer (DMEM containing 40 mM HEPES, 0.2% BSA, and 4 mM MnCl2) to various concentrations and 100 μL of RPMI-8866 cells (2×10^6 cell/mL) were added to plates coated with MAdCAM-1/Fc (5×10^5 cells/well) with human serum being contained at a final concentration of 50%, followed by incubation at 30° C. for 15 minutes to 60 minutes. After the cells were bound to each well, unbound cells were removed by washing with PBS. To the plates, buffer C (PBS containing 1.5% Triton X-100) was added at 50 μL/well to lyse the bound RPMI-8866 cells. To 30 μL of the cell lysate, 30 μL of Substrate Buffer (Promega, CytoTox 96 Non-Radioactive Cytotoxicity Assay) was added, and the reaction was allowed to proceed at room temperature in a dark place for 30 minutes. To each well, 30 μL of Stop Solution (Promega, CytoTox 96 Non-Radioactive Cytotoxicity Assay) was added, and the absorbance at 490 nm was measured by using a plate reader. Here, by the obtained absorbance, the activity of the lactate dehydrogenase (LDH) dissolved into the supernatant of each well was detected. In other words, the absorbance was proportional to the number of the RPMI-8866 cells bound to MAdCAM-1 and remaining on the plate. The test was duplicated. The binding ratios of the cells at various concentrations were determined, with the absorbance of a well containing no test substance taken as 100%. Then, the concentration IC50, at which 50% binding inhibition was achieved, was calculated.

α4β1 integrin = α4β1 integrin (Homo sapiens (Human), UniProt P05556+P13612); test: VCAM-1/α4β1 integrin binding inhibitory activity evaluation test (Jurkat cell adhesion to VCAM-1/Fc); settings: Jurkat cells binding to recombinant human VCAM-1/Fc
Method: The ability of test substances to inhibit the binding of a human T-cell line, Jurkat, which is known to express α4β1 integrin, to VCAM-1 was measured. To 96-well microtiter plates, recombinant human VCAM-1/Fc (R&D systems) solution (1 μg/mL) diluted with buffer A (carbonate buffer, pH 9.6) was added at 50 μL/well, followed by incubation at 4° C. overnight. After washing once with PBS, Block Ace (Snow Brand Milk Products Company, Limited) was added at 150 μL/well, followed by incubation at room temperature for 2 hours. After removal, washing was conducted once with PBS. 100 μL of each test substance diluted with a binding buffer (DMEM containing 40 mM HEPES, 0.2% BSA, and 4 mM MnCl2) to various concentrations and 100 μL of the Jurkat cells (2×10^6 cell/mL) were added to the plates coated with VCAM-1/Fc (5×10^5 cells/well), followed by incubation at 30° C. for 15 minutes to 60 minutes. After the cells were bound to each well, unbound cells were removed by washing with PBS. To the plates, buffer C (PBS containing 1.5% Triton X-100) was added at 50 μL/well to lyse the bound Jurkat cells. To 30 μL of the cell lysate, 30 μL of Substrate Buffer (Promega, CytoTox 96 Non-Radioactive Cytotoxicity Assay) was added, and the reaction was allowed to proceed at room temperature in a dark place for 30 minutes. To each well, 30 μL of Stop Solution (Promega, CytoTox 96 Non-Radioactive Cytotoxicity Assay) was added, and the absorbance at 490 nm was measured by using a plate reader. Here, by the obtained absorbance, the activity of the lactate dehydrogenase (LDH) dissolved into the supernatant of each well was detected. In other words, the absorbance was proportional to the number of the Jurkat cells bound to VCAM-1 and remaining on the plate. The test was duplicated. The binding ratios of the cells at various concentrations were determined, with the absorbance of a well containing no test substances taken as 100%. Then, the concentration IC50, at which 50% binding inhibition was achieved, was calculated. […] Note that, among the compounds synthesized in the corresponding Examples, the compounds in the free form (Compounds A-1 to A-39) were used as the test compounds. Hereinafter, the same shall apply.

Chain of α4β1 integrin (P13612 34-1032): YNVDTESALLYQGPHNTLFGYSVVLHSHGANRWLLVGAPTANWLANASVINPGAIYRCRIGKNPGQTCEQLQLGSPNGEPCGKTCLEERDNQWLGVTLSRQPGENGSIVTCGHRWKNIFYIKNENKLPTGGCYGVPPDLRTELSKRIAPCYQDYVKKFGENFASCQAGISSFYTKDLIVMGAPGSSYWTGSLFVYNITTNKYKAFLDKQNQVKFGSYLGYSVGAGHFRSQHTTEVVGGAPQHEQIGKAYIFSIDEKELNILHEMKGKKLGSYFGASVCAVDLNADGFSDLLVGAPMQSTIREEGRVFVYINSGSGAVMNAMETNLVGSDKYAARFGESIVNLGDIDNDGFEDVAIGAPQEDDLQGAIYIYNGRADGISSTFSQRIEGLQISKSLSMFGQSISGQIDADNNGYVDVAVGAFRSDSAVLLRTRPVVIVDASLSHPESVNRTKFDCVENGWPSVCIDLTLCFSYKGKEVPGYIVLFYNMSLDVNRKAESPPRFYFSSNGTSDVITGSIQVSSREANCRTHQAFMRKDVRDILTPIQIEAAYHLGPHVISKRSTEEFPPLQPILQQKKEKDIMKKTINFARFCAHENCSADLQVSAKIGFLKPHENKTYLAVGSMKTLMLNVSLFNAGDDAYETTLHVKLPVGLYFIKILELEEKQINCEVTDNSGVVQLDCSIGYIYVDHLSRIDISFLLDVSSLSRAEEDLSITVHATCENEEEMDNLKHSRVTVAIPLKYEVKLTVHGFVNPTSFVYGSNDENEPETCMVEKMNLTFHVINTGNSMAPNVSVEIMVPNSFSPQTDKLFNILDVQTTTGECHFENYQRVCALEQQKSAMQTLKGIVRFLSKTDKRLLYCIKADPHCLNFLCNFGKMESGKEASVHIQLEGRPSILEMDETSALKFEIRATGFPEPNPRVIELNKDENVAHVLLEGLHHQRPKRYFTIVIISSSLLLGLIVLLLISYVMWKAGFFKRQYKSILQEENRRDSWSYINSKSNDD
Chain of α4β1 integrin (P05556 21-798): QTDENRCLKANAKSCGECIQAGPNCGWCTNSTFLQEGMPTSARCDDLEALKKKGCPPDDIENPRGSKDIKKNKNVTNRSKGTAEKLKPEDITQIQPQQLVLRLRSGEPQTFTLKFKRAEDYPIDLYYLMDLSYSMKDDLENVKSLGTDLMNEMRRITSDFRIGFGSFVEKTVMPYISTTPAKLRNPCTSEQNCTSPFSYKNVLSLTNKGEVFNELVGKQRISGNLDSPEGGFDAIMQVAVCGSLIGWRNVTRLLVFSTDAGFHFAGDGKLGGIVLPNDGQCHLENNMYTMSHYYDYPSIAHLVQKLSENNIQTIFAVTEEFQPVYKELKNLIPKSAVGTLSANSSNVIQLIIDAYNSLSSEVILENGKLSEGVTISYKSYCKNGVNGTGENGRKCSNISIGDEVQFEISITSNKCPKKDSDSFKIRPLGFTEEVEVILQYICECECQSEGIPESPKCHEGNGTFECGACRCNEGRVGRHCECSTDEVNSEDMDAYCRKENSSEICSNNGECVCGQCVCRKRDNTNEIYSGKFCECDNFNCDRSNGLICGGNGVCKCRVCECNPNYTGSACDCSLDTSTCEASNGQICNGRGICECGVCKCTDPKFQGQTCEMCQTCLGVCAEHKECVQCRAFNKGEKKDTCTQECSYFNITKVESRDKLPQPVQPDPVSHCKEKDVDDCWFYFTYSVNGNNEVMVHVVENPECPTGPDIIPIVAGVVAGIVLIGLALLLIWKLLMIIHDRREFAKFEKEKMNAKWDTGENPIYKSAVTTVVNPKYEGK
T1 sequence (P13612 34-1032): as the sequence (P13612 34-1032) above
T1 sequence (P26010 20-798): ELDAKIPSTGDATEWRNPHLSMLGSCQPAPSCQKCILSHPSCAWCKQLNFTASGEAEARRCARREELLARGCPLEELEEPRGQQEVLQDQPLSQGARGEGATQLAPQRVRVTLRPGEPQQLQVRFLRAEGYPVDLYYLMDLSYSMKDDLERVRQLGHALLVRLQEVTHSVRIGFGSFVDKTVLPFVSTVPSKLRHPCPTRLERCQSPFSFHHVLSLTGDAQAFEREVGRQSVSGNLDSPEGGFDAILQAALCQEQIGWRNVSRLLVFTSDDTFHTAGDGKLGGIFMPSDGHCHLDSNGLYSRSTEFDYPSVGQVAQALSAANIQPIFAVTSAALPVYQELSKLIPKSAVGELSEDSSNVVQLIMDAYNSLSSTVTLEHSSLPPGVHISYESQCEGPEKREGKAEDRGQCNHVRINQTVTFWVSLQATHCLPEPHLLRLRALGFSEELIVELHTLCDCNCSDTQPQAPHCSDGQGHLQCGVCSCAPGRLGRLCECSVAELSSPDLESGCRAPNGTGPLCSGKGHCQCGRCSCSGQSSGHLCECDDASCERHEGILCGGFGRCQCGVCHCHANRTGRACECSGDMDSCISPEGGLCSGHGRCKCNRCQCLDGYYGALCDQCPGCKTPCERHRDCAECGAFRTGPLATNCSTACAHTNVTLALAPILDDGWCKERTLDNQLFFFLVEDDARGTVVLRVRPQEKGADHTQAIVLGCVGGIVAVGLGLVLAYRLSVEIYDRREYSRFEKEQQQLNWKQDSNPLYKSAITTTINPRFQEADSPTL

Cn1c(=O)n(-c2ccc(C[C@H](NC(=O)c3c(F)cc(NS(=O)(=O)c4ccc(-n5ccnn5)cn4)cc3F)C(=O)O)cc2)c(=O)c2ccncc21 [Example 71, N-[2,6-Difluoro-4-({[5-(1H-1,2,3-triazol-1-yl)pyridin-2-yl]sulfonyl}amino)benzoyl]-4-(1-methyl-2,4-dioxo-1,4-dihydropyrido[3,4-d]pyrimidin-3(2H)-yl)-L-phenylalanine]
Selectivity (α4β7 integrin [1]): 220
IC50 (α4β7 integrin [1]): 0.098 nM
IC50 (α4β7 integrin [2]): 0.72 nM
IC50 (α4β1 integrin): 22 nM

Cn1ccc(=O)n(-c2ccc(C[C@H](NC(=O)c3c(F)cc(NS(=O)(=O)c4ccc(C(=O)NC5CC5)cc4)cc3F)C(=O)O)cc2)c1=O [Example 45, N-{4-[({4-[(Cyclopropylamino)carbonyl]phenyl}sulfonyl)amino]-2,6-difluorobenzoyl}-4-(3-methyl-2,6-dioxo-3,6-dihydropyrimidin-1(2H)-yl)-L-phenylalanine]
Selectivity (α4β7 integrin [1]): 520
IC50 (α4β7 integrin [1]): 0.97 nM
IC50 (α4β7 integrin [2]): 21 nM
IC50 (α4β1 integrin): 500 nM

COc1ccc2c(c1)c(=O)n(-c1ccc(C[C@H](NC(=O)c3c(F)cc(NS(=O)(=O)c4ccc(-n5ccnn5)cc4)cc3F)C(=O)O)cc1)c(=O)n2C [Example 51, N-[2,6-Difluoro-4-({[4-(1H-1,2,3-triazol-1-yl)phenyl]sulfonyl}amino)benzoyl]-4-(6-methoxy-1-methyl-2,4-dioxo-1,4-dihydroquinazolin-3(2H)-yl)-L-phenylalanine]
Selectivity (α4β7 integrin [1]): 220
IC50 (α4β7 integrin [1]): 6.9 nM
IC50 (α4β7 integrin [2]): 21 nM
IC50 (α4β1 integrin): 1500 nM

Cn1c(=O)n(-c2ccc(C[C@H](NC(=O)c3c(F)cc(NS(=O)(=O)c4ccc(-c5ccsc5)cc4)cc3F)C(=O)O)cc2)c(=O)c2ccncc21 [Example 53, N-[2,6-Difluoro-4-({[4-(3-thienyl)phenyl]sulfonyl}amino)benzoyl]-4-(1-methyl-2,4-dioxo-1,4-dihydropyrido[3,4-d]pyrimidin-3(2H)-yl)-L-phenylalanine]
Selectivity (α4β7 integrin [1]): 260
IC50 (α4β7 integrin [1]): 2.8 nM
IC50 (α4β7 integrin [2]): 24 nM
IC50 (α4β1 integrin): 740 nM

Cn1c(=O)n(-c2ccc(C[C@H](NC(=O)c3c(F)cc(NS(=O)(=O)c4ccc(-c5ncc[nH]5)cc4)cc3F)C(=O)O)cc2)c(=O)c2ccncc21 [Example 48, N-[2,6-Difluoro-4-({[4-(1H-imidazol-2-yl)phenyl]sulfonyl}amino)benzoyl]-4-(1-methyl-2,4-dioxo-1,4-dihydropyrido[3,4-d]pyrimidin-3(2H)-yl)-L-phenylalanine]
Selectivity (α4β7 integrin [1]): 230
IC50 (α4β7 integrin [1]): 0.24 nM
IC50 (α4β7 integrin [2]): 14 nM
IC50 (α4β1 integrin): 54 nM

Cn1c(=O)n(-c2ccc(C[C@H](NC(=O)c3c(F)cc(NS(=O)(=O)c4ccc(-c5ccnc(F)c5)cc4)cc3F)C(=O)O)cc2)c(=O)c2ccncc21 [Example 68, N-[2,6-Difluoro-4-({[4-(2-fluoropyridin-4-yl)phenyl]sulfonyl}amino)benzoyl]-4-(1-methyl-2,4-dioxo-1,4-dihydropyrido[3,4-d]pyrimidin-3(2H)-yl)-L-phenylalanine]
Selectivity (α4β7 integrin [1]): 920
IC50 (α4β7 integrin [1]): 0.13 nM
IC50 (α4β7 integrin [2]): 9.8 nM
IC50 (α4β1 integrin): 120 nM

Cc1ccc(-c2ccc(S(=O)(=O)Nc3cc(F)c(C(=O)N[C@@H](Cc4ccc(-n5c(=O)c6ccncc6n(C)c5=O)cc4)C(=O)O)c(F)c3)cc2)cn1 [Example 50, N-[2,6-Difluoro-4-({[4-(6-methylpyridin-3-yl)phenyl]sulfonyl}amino)benzoyl]-4-(1-methyl-2,4-dioxo-1,4-dihydropyrido[3,4-d]pyrimidin-3(2H)-yl)-L-phenylalanine]
Selectivity (α4β7 integrin [1]): 560
IC50 (α4β7 integrin [1]): 0.32 nM
IC50 (α4β7 integrin [2]): 19 nM
IC50 (α4β1 integrin): 180 nM

Cn1c(=O)n(-c2ccc(C[C@H](NC(=O)c3c(F)cc(NS(=O)(=O)c4ccc(-c5ncccn5)cc4)cc3F)C(=O)O)cc2)c(=O)c2ccncc21 [Example 41, N-(2,6-Difluoro-4-{[(4-pyrimidin-2-yl-phenyl)sulfonyl]amino}benzoyl)-4-(1-methyl-2,4-dioxo-1,4-dihydropyrido[3,4-d]pyrimidin-3(2H)-yl)-L-phenylalanine]
Selectivity (α4β7 integrin [1]): 500
IC50 (α4β7 integrin [1]): 0.26 nM
IC50 (α4β7 integrin [2]): 6.4 nM
IC50 (α4β1 integrin): 130 nM

Cc1cc(-c2ccc(S(=O)(=O)Nc3cc(F)c(C(=O)N[C@@H](Cc4ccc(-n5c(=O)c6ccncc6n(C)c5=O)cc4)C(=O)O)c(F)c3)cc2)cc(C)n1 [Example 70, N-[4-({[4-(2,6-Dimethylpyridin-4-yl)phenyl]sulfonyl}amino)-2,6-difluorobenzoyl]-4-(1-methyl-2,4-dioxo-1,4-dihydropyrido[3,4-d]pyrimidin-3(2H)-yl)-L-phenylalanine]
Selectivity (α4β7 integrin [1]): 660
IC50 (α4β7 integrin [1]): 0.41 nM
IC50 (α4β7 integrin [2]): 21 nM
IC50 (α4β1 integrin): 270 nM

Cn1c(=O)n(-c2ccc(C[C@H](NC(=O)c3c(F)cc(NS(=O)(=O)c4ccc(-n5cccn5)cc4)cc3F)C(=O)O)cc2)c(=O)c2ccncc21 [Example 62, N-[2,6-Difluoro-4-({[4-(1H-pyrazol-1-yl)phenyl]sulfonyl}amino)benzoyl]-4-(1-methyl-2,4-dioxo-1,4-dihydropyrido[3,4-d]pyrimidin-3(2H)-yl)-L-phenylalanine]
Selectivity (α4β7 integrin [1]): 160
IC50 (α4β7 integrin [1]): 0.64 nM
IC50 (α4β7 integrin [2]): 13 nM
IC50 (α4β1 integrin): 100 nM
